The values below come from patent US20230047027A1, “COMPOSITIONS AND METHODS USING CANNABINOID COMPOUNDS FOR REGULATING GASTRIC ACID SECRETION TO TREAT GASTROESOPHAGEAL REFLUX DISEASE AND RELATED CONDITIONS” (Demetrix, Inc., priority 2021, published 2023).

In experiment [1] the target is T1, H2 receptor (Homo sapiens, UniProt P25021). The experiment in a line: GPCR reactivity screen (PathHunter β-Arrestin GPCR assay), antagonist mode. The experiment is classed as cell-based. The conditions noted are these: for H2 Receptor Antagonist Activity (percent inhibition): single assay run, pre-incubation with cannabinoid, then agonist challenge at EC80, test concentration not given, about 60% or higher = strong activity; for H2 antagonist activity in the GPCR reactivity screen (in words): summary of Table 1; for effect on sensitivity to histamine (in words): Table 1, negative inhibition. The procedure: To evaluate the H2 antagonist activity of the cannabinoid compounds, a GPCR reactivity assay was performed. The evaluated cannabinoid compounds were: CBN, THCV, CBDVA, CBG, CBL, CBC, CBDV, CBDA, CBD, CBGA, (+)-CBD, CBG-C4, CBD-C1, CBD-C2, CBGV, CBGA-C4, CBGVA, CBCA, and CBLA. Tiotidine was used as the control.
(§1) A single assay was run. In each run, PathHunter® cell lines were removed from a freezer stock and seeded at a volume of 20 μL into white walled, 384-well microplates and incubated at 37° C. Each cell was pre-incubated with the cannabinoid compound followed by an agonist challenge at the EC80 concentration. […] were then diluted to generate a 5x sample in assay buffer. 5 μL of the 5x sample was then added to cells and incubated at 37° C. for 30 minutes. Finally, 5 μL of 6x EC80 agonist in assay buffer were added to the cells and incubated at 37° C. for 90 minutes or 180 minutes. The assay signal was generated through addition of 12.5 μL or 15 μL (50% V/V) of a detection reagent cocktail followed by a one hour incubation time at room temperature. Microplates were read following signal generation with a PerkinElmer Envision™ (PerkinElmer Inc., Waltham, Mass.) for chemiluminescent signal detection. Reactivity was analyzed using the CBIS data analysis suite (ChemInnovation, CA) where RLU refers to the raw measured values. The percent inhibition was calculated using the formula: % Inhibition=100%*(1−mean RLU of test sample−mean RLU of control)/(mean RLU of EC80 control−mean RLU of vehicle control).
The percent inhibition is depicted. As used herein, strong activity against a receptor is considered a percent activity of about 60% or higher. Higher results for antagonism against the H2 receptor are considered better.

Experiment [2] deals with T1, H2 receptor. The experiment in a line: IC50 antagonist activity screen (PathHunter β-Arrestin GPCR assay). The format is cell-based. To be noted: for Emax / Maximum inhibition (%): maximum inhibition (antagonism) from IC50 curves, about 60% or higher = strong activity; for Emax: read-out: IC50 (Inhibition - Max Response).
From the text: It has additionally been discovered that the alkyl side chain length of cannabinoid compounds can influence the effect the cannabinoid compounds have on the GPCR receptors. For example, it has been discovered that increasing the length of the alkyl side chain, generally increases the antagonism of CBG and CBD to the H2 receptor. […] The RC50 value indicates the value at which the cannabinoid reached the reference compound's 50% effective concentration.
as §1
Based on the results of the GPCR reactivity screen, and IC50 antagonist activity screen was run against the H2 receptor. The IC50 antagonist activity screen was run for each of CBG, CBC, CBL, CBN, CBDV, CBD, CBD-C1, CBD-C2, (+)-CBD, CBG-C6, CBG-C7, CBG-C9, CBD-C6, CBD-C7, CBD-C9, CBGA-C6, CBGA-C7, and CBGA-C9. IC50 curves were measured using the same GPCR assay, PathHunter® β-Arrestin from Eurofins DiscoverX Products (Fremont, Calif.), as the GPCR reactivity screen. As used herein, strong activity against a receptor is considered a maximum activity of about 60% or higher. Higher results for antagonism against the H2 receptor are considered better.

The mark [3] stands for this setting: value at which the cannabinoid reached the reference compound's (tiotidine) 50% effective concentration, H2 receptor antagonist mode, read-out: RC50 (the source's name).

Like-named read-outs stand apart in the source and are kept apart here.

T1 sequence (P25021 whole entry): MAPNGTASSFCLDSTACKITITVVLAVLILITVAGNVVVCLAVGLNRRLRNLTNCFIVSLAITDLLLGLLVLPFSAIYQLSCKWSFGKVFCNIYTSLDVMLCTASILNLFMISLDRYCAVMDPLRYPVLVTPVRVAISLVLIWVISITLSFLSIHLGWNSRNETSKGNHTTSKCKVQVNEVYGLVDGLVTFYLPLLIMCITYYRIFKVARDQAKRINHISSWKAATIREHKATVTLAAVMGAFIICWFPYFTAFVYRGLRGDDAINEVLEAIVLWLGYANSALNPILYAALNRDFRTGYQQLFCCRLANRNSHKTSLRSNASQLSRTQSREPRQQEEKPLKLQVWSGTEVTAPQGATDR

Turning to `CCCCCc1cc(O)c2c(c1)OC(C)(CCC=C(C)C)C=C2` (stereo not shown) [CBC, cannabichromene], the “H2 Receptor Antagonist Activity (percent inhibition)” value in experiment [1] amounted to 117%. Also, in experiment [2], the IC50 worked out at 2.63 µM and the Emax turned out to be 62%.

As to `CCCCCc1cc2c(c(O)c1C(=O)O)C=CC(C)(CCC=C(C)C)O2` (stereo not shown) [CBCA, cannabichromenic acid], in experiment [1], the “H2 Receptor Antagonist Activity (percent inhibition)” value stood at 12% and the “H2 antagonist activity in the GPCR reactivity screen (in words)” value (“H2 antagonist activity” below) was “did not demonstrate H2 antagonist activity”.

In the case of `C=C(C)[C@@H]1CCC(C)=C[C@H]1c1c(O)cc(CCCCC)cc1O` [CBD, cannabidol], the “Maximum inhibition (%)” value in experiment [2] came to 64. Also, in experiment [2] (setting [3]), the IC50 worked out at 0.83 µM.

In the case of `C=C(C)[C@@H]1CCC(C)=C[C@H]1c1c(O)cc(C)cc1O` [CBD-C1, cannabidiorcol], in experiment [1], the “H2 Receptor Antagonist Activity (percent inhibition)” value came out at 47% and the “H2 antagonist activity” value was “did not demonstrate H2 antagonist activity”. The “Maximum inhibition (%)” value in experiment [2] was found to be 53. Moreover, the IC50 in experiment [2] (setting [3]) was above 10 µM.

Consider `C=C(C)[C@@H]1CCC(C)=C[C@H]1c1c(O)cc(CC)cc1O` [CBD-C2, cannabidol-C2], for which the “Maximum inhibition (%)” value in experiment [2] came to 71. For the same compound, in experiment [2] (setting [3]), the IC50 turned out to be 5.22 µM.

As for `C=C(C)[C@@H]1CCC(C)=C[C@H]1c1c(O)cc(CCCCCC)cc1O` [CBD-C6, cannabidol hexyl], in experiment [2], the “Maximum inhibition (%)” value is reported as 80. In addition, the IC50 in experiment [2] (setting [3]) amounted to 0.46 µM.

As to `C=C(C)[C@@H]1CCC(C)=C[C@H]1c1c(O)cc(CCCCCCC)cc1O` [CBD-C7, cannabidol heptyl], in experiment [2], the “Maximum inhibition (%)” value came to 74. In addition, the IC50 in experiment [2] (setting [3]) worked out at 0.38 µM.

In the case of `C=C(C)[C@@H]1CCC(C)=C[C@H]1c1c(O)cc(CCCCCCCCC)cc1O` [CBD-C9, cannabidol nonyl], in experiment [2], the “Maximum inhibition (%)” value stood at 56. Also, the IC50 in experiment [2] (setting [3]) turned out to be 0.1 µM.

Take `C=C(C)[C@@H]1CCC(C)=C[C@H]1c1c(O)cc(CCCCC)c(C(=O)O)c1O` [CBDA, cannabidiolic acid]: in experiment [1], the “H2 Receptor Antagonist Activity (percent inhibition)” value turned out to be 4% and the “H2 antagonist activity” value is on record as “did not demonstrate H2 antagonist activity”.

Take `C=C(C)[C@@H]1CCC(C)=C[C@H]1c1c(O)cc(CCC)cc1O` [CBDV, cannabidivarin]: in experiment [2], the Emax amounted to 75%. The IC50 in experiment [2] (setting [3]) stood at 4.5 µM.

For the compound `C=C(C)[C@@H]1CCC(C)=C[C@H]1c1c(O)cc(CCC)c(C(=O)O)c1O` [CBDVA, cannabidivarinic acid], in experiment [1], the “H2 Receptor Antagonist Activity (percent inhibition)” value is 12% and the “H2 antagonist activity” value is “did not demonstrate H2 antagonist activity”.

`CCCCCc1cc(O)c(C/C=C(\C)CCC=C(C)C)c(O)c1` [CBG, cannabigerol]: in experiment [2], the Emax was determined as 21%. The IC50 in experiment [2] (setting [3]) was above 10 µM.

In the case of `CCCCc1cc(O)c(CC=C(C)CCC=C(C)C)c(O)c1` [CBG-C4, cannabigerol butyl], in experiment [1], the “effect on sensitivity to histamine (in words)” value (from here on “effect on sensitivity”) is listed as “increasing sensitivity to histamine”, the “H2 Receptor Antagonist Activity (percent inhibition)” value is on record as −62% and the “H2 antagonist activity” value is reported as “did not demonstrate H2 antagonist activity”.

With `CCCCCCc1cc(O)c(C/C=C(\C)CCC=C(C)C)c(O)c1` [CBG-C6, cannabigerol hexyl], the “Maximum inhibition (%)” value in experiment [2] is on record as 84. For the same compound, the IC50 in experiment [2] (setting [3]) was above 10 µM.

Turning to `CCCCCCCc1cc(O)c(C/C=C(\C)CCC=C(C)C)c(O)c1` [CBG-C7, cannabigerol heptyl], in experiment [2], the “Maximum inhibition (%)” value is given as 93. For the same compound, the IC50 in experiment [2] (setting [3]) came to 3.39 µM.

Consider `CCCCCCCCCc1cc(O)c(C/C=C(\C)CCC=C(C)C)c(O)c1` [CBG-C9, cannabigerol nonyl], for which the “Maximum inhibition (%)” value in experiment [2] is reported as 96. Moreover, the IC50 in experiment [2] (setting [3]) is 2.89 µM.

In the case of `CCCCCc1cc(O)c(C/C=C(\C)CCC=C(C)C)c(O)c1C(=O)O` [CBGA, cannabigerolic acid], in experiment [1], the “effect on sensitivity” value is on record as “increasing sensitivity to histamine”, the “H2 Receptor Antagonist Activity (percent inhibition)” value is given as −3% and the “H2 antagonist activity” value is “did not demonstrate H2 antagonist activity”.

As to `CCCCc1cc(O)c(C/C=C(\C)CCC=C(C)C)c(O)c1C(=O)O` [CBGA-C4, cannabigerolic acid butyl], in experiment [1], the “H2 Receptor Antagonist Activity (percent inhibition)” value was found to be 16% and the “H2 antagonist activity” value is given as “did not demonstrate H2 antagonist activity”.

As to `CCCCCCc1cc(O)c(C/C=C(\C)CCC=C(C)C)c(O)c1C(=O)O` [CBGA-C6, cannabigerolic acid hexyl], in experiment [2], the “Maximum inhibition (%)” value came out at 9. Moreover, the IC50 in experiment [2] (setting [3]) is above 10 µM.

Regarding `CCCCCCCc1cc(O)c(C/C=C(\C)CCC=C(C)C)c(O)c1C(=O)O` [CBGA-C7, cannabigerolic acid heptyl], the “Maximum inhibition (%)” value in experiment [2] is listed as 17. Also, in experiment [2] (setting [3]), the IC50 was above 10 µM.

Regarding `CCCCCCCCCc1cc(O)c(C/C=C(\C)CCC=C(C)C)c(O)c1C(=O)O` [CBGA-C9, cannabigerolic acid nonyl], in experiment [2], the “Maximum inhibition (%)” value is listed as 11. For the same compound, the IC50 in experiment [2] (setting [3]) was above 10 µM.

Consider `CCCc1cc(O)c(C/C=C(\C)CCC=C(C)C)c(O)c1` [CBGV, cannabigerivarin], for which, in experiment [1], the “H2 Receptor Antagonist Activity (percent inhibition)” value amounted to 10% and the “H2 antagonist activity” value was “did not demonstrate H2 antagonist activity”.

Turning to `CCCc1cc(O)c(C/C=C(\C)CCC=C(C)C)c(O)c1C(=O)O` [CBGVA, cannabigerovarinic acid], in experiment [1], the “H2 Receptor Antagonist Activity (percent inhibition)” value was found to be 2% and the “H2 antagonist activity” value is reported as “did not demonstrate H2 antagonist activity”.

Turning to `CCCCCc1cc(O)c2c(c1)OC1(C)CCC3C1C2C3(C)C` (stereo not shown) [CBL, cannabicyclol], in experiment [2], the IC50 was found to be 1.17 µM and the Emax was 64%.

For `CCCCCc1cc2c(c(O)c1C(=O)O)C1C3C(CCC3(C)O2)C1(C)C` (stereo not shown) [CBLA, cannabicyclolic acid], in experiment [1], the “H2 Receptor Antagonist Activity (percent inhibition)” value is reported as 11% and the “H2 antagonist activity” value is “did not demonstrate H2 antagonist activity”.

Regarding `CCCCCc1cc(O)c2c(c1)OC(C)(C)c1ccc(C)cc1-2` [CBN, cannabinol], in experiment [2], the IC50 was above 10 µM and the Emax was determined as 12%.

As for `CCCc1cc(O)c2c(c1)OC(C)(C)[C@@H]1CCC(C)=C[C@@H]21` [THCV, tetrahydrocannabivarin], in experiment [1], the “effect on sensitivity” value is “increasing sensitivity to histamine”, the “H2 Receptor Antagonist Activity (percent inhibition)” value was −22% and the “H2 antagonist activity” value was “did not demonstrate H2 antagonist activity”.

Take (+)-cannabidiol [(+)-CBD]: in experiment [1], the “H2 Receptor Antagonist Activity (percent inhibition)” value is 45% and the “H2 antagonist activity” value is “did not demonstrate H2 antagonist activity”. For the same compound, the “Maximum inhibition (%)” value in experiment [2] was determined as 42. For the same compound, in experiment [2] (setting [3]), the IC50 is above 10 µM.
